Data: patent US12577532B2, “Xeno-free and transgene-free reprograming of mesenchymal stem cells toward neural progenitor cells” (UNIVERSITY OF CENTRAL FLORIDA RESEARCH FOUNDATION, INC., priority 2019, dated 2026)

Columns and labels:
MSC = assay: Reprogramming of MSCs toward neural progenitor spheres (neurosphere production); format: cell-based
Experimental: MSC media contains DMEM F:12, 10% KSR, 5% Glutamax, 5% NNEA, 1% Penicillin/streptomycin. We used 12 well treated plates for production.
MSCs are seeded in culture media and allowed to grow up under serum-free conditions until 80% confluence on adherent conditions using laminin as coat.
At stage 1, fresh media and NSC exosomes (and in two methodologies also we used pluripotent cells to enhance de-differentiation) as a source of linage specific signals, are provided to the cultured MSCs (typically following decitabine treatment), and exposed to NSC exosomes for 1-5 days. Following stage 1, (typically at day 5) stage 2 involves switching out media and NSC exosomes and exposing the cells to the fresh media and NSC exosomes for 5-15 days. After stage 2, (typically at day 15 from the start of stage 1) stage 3 involves switching out media and NSC exosomes with fresh media lacking NSC exosomes and allowing the cells to grow for 5-7 days. After stage 3, (typically at day 20-22 from the start of stage 1), neural progenitor spheres (the primary colonies) are isolated from the culture. After isolation occurs, the neurospheres are picked to keep on suspension for expansion and experimentation. […]

iNSC-MSC = assay: Differentiation potential of iNSC-MSC under serum free conditions (immunofluorescence); format: cell-based; conditions: methods using decitabine (method 2 & 4) versus methods without
From the text: The resultant cells of the four methods express neural differentiation markers Bill, GFAP and NeuN, especially in the surrounded areas of the spheres. On the other hand, they keep NSC markers Sox2, Sox1 and CD90 on the spheres. […] All nuclei were counterstained with DAPI. Scale bar, 50 μm.

Nc1ncn([C@H]2C[C@H](O)[C@@H](CO)O2)c(=O)n1 [decitabine, 5-aza-2′-deoxycytidine]
number of primary neurospheres produced (MSC; MSC cultured with NSC exosomes, day 21 of production (FIG. 2B)): enhances the number of spheres produced
spheres produced (MSC; MSC treated without NSC exosomes): no spheres were found produced
immunofluorescence intensities for BII tubulin (iNSC-MSC): significant less iimmunofluorescence intensities
